Experimental findings from ChEMBL document CHEMBL3352811, “Novel pyrazoline derivatives as bi-inhibitor of COX-2 and B-Raf in treating cervical carcinoma” (Bioorg Med Chem, 2014) are described below.

Structures are written as SMILES.

Experiment [1] is filed under the species Homo sapiens. Put plainly: Selectivity index, ratio of IC50 for COX1 (unknown origin) to IC50 for COX2 (unknown origin).
The subject of experiment [2] is HeLa. Put plainly: Antiproliferative activity against human HeLa cells after 24 hrs by MTT assay. In kind it is functional. Background: Formazan colour is commonly taken as a measure of viable cells.
Experiment [3] is described as follows: Inhibition of mouse B-Raf V600E mutant assessed as as reduction in human N-terminal His-tagged MEK1 phosphorylation pre-incubated with compound for 1 hr.
Experiment [4] is described as follows: Antiproliferative activity against human WM266.4 cells after 24 hrs by MTT assay. In kind it is functional. The note with it: WM 266-4, 24 h.
In experiment [5] the target is Prostaglandin G/H synthase 1 (Homo sapiens, UniProt P23219). Put plainly: Inhibition of COX1 (unknown origin) by solid phase ELISA method. Background: An ELISA detects its analyte on a solid surface through an enzyme-linked reagent.
Experiment [6] deals with T1, Prostaglandin G/H synthase 2 (Homo sapiens, UniProt P35354).
T1 sequence (P35354 whole entry): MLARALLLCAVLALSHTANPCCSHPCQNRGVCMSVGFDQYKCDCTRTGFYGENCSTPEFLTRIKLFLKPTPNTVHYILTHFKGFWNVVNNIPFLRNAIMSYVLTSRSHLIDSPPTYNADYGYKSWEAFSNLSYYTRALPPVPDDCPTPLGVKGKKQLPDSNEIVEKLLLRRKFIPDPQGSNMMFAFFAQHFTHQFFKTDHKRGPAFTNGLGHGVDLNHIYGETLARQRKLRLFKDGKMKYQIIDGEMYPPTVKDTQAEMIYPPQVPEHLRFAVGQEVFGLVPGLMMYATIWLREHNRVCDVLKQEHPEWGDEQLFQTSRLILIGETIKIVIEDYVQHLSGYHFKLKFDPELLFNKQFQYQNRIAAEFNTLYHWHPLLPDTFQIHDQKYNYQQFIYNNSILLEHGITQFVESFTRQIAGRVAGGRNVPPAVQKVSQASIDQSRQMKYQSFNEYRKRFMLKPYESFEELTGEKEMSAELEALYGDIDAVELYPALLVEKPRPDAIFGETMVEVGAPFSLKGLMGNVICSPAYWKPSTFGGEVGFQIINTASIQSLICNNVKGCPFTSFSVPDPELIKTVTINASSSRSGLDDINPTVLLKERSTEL
Put plainly: Inhibition of COX2 (unknown origin) by solid phase ELISA method.

Chain of Prostaglandin G/H synthase 1 (P23219 whole entry): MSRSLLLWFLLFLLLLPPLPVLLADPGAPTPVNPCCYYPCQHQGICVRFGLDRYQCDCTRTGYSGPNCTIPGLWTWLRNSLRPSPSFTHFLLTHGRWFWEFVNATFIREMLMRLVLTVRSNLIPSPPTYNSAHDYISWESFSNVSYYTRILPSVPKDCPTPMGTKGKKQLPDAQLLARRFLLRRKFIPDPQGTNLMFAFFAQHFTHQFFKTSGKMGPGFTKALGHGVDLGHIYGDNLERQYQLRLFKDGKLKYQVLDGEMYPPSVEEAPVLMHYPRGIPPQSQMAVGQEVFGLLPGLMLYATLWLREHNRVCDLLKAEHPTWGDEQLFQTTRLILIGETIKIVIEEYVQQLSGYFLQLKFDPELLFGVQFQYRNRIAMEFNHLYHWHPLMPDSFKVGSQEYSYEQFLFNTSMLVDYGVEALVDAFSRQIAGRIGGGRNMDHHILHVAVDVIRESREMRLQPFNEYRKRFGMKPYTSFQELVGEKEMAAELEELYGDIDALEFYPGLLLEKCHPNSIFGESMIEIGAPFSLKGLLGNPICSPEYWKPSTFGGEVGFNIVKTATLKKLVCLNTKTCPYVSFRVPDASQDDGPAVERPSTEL

As for `Cc1ccc(S(=O)(=O)N2N=C(C(F)(F)F)CC2c2ccc3c(c2)OCO3)cc1` (stereo not given), the Ratio IC50 in experiment [1] worked out at 7. For the same compound, the GI50 (usually the concentration giving 50% growth inhibition) in experiment [2] was 28.7 µM; in experiment [4], 1.63 µM. Further, the IC50 (commonly the point on the concentration scale where inhibition reaches its midpoint) turned out to be 2.26 µM in experiment [3] and 3.72 µM in experiment [5].
The matching figures for `CS(=O)(=O)c1ccc(N2N=C(C(F)(F)F)CC2c2ccc3ccccc3c2)cc1` (stereo not given): 2.2, 63.6 µM, 0.97 µM, 0.67 µM and 38.7 µM.
As for `O=S(=O)(c1ccccc1)N1N=C(C(F)(F)F)CC1c1ccc2ccccc2c1` (stereo not given), in experiment [1], the Ratio IC50 was 0.04. Besides, the results for the IC50 in experiment [6], in experiment [3] and in experiment [5] were 174 µM, > 100 µM and 7.23 µM, respectively. Besides, the concentration for 50% growth inhibition (GI50) in experiment [2] and in experiment [4] was > 500 µM throughout.
For `Cc1ccc(S(=O)(=O)N2N=C(C(F)(F)F)CC2c2cccc3ccccc23)cc1` (stereo not given), the Ratio IC50 in experiment [1] came out at 1.7. Besides, the results for the concentration for 50% growth inhibition (GI50) in experiment [2] and in experiment [4] were > 500 µM and 1.06 µM, respectively. In addition, the IC50 in experiment [3] was determined as 1.01 µM; in experiment [5], 153 µM.
For `Cc1ccc(S(=O)(=O)N2N=C(C(F)(F)F)CC2c2cccc3c2OCCO3)cc1` (stereo not given), in experiment [1], the Ratio IC50 was 0.01. Moreover, the IC50 is > 500 µM in experiment [6], 1.74 µM in experiment [3] and 15.4 µM in experiment [5]. The GI50 in experiment [2] was > 500 µM; in experiment [4], 1.34 µM.
With `O=S(=O)(c1ccccc1)N1N=C(C(F)(F)F)CC1c1cccc2ccccc12` (stereo not given), in experiment [1], the Ratio IC50 is 0.26. Also, the figures for the 50% growth inhibitory concentration (GI50) in experiment [2] and in experiment [4] were > 500 µM and 1.18 µM, respectively. The IC50 amounted to 1.24 µM in experiment [3] and 17.6 µM in experiment [5].
On to `Cc1ccc(S(=O)(=O)N2N=C(C(F)(F)F)CC2c2ccc3c(c2)OCCO3)cc1` (stereo not given), for which, in experiment [1], the Ratio IC50 is 3.5. Further, the GI50 in experiment [2] was found to be 24.8 µM; in experiment [4], 0.83 µM. For the same compound, the values for the IC50 in experiment [3] and in experiment [5] were 0.25 µM and 4.63 µM, respectively.
Consider `NS(=O)(=O)c1ccc(N2N=C(C(F)(F)F)CC2c2cccc3ccccc23)cc1` (stereo not given), for which the figures for the GI50 in experiment [2] and in experiment [4] were 29.5 µM and 8.91 µM, respectively. For the same compound, the IC50 in experiment [3] came to 8.23 µM; in experiment [5], 17 µM.
On the same counts, the results for `CS(=O)(=O)c1ccc(N2N=C(C(F)(F)F)CC2c2cccc3ccccc23)cc1` (stereo not given) are 33.3 µM, 10.6 µM, 8.53 µM and 15.2 µM.
Consider `NS(=O)(=O)c1ccc(N2N=C(C(F)(F)F)CC2c2cccc3c2OCO3)cc1` (stereo not given), for which the Ratio IC50 in experiment [1] was 197. The concentration for 50% growth inhibition (GI50) in experiment [2] amounted to 26.2 µM; in experiment [4] it was 1.32 µM. Moreover, the results for the IC50 in experiment [3] and in experiment [5] were 1.77 µM and 10 µM, respectively.
On the same counts, the results for `NS(=O)(=O)c1ccc(N2N=C(C(F)(F)F)CC2c2cccc3c2OCCO3)cc1` (stereo not given) are > 500, 26 µM, 0.82 µM, 0.15 µM and 34.5 µM.
Consider `NS(=O)(=O)c1ccc(N2N=C(C(F)(F)F)CC2c2ccc3c(c2)OCO3)cc1` (stereo not given), for which the Ratio IC50 in experiment [1] was > 500. Also, the IC50 in experiment [3] worked out at 3.84 µM; in experiment [5], 19 µM. In addition, the GI50 in experiment [4] was determined as 2.47 µM.
On to `O=c1[nH]cc(F)c(=O)[nH]1` [FLUOROURACIL], for which the results for the GI50 in experiment [2] and in experiment [4] were 30.2 µM and 28.8 µM, respectively.
`CS(=O)(=O)c1ccc(N2N=C(C(F)(F)F)CC2c2ccc3c(c2)OCO3)cc1` (stereo not given): the Ratio IC50 in experiment [1] amounted to 411. Moreover, the GI50 in experiment [2] amounted to 27.6 µM; in experiment [4], 0.89 µM. Further, the IC50 was 0.49 µM in experiment [3] and 57.5 µM in experiment [5].
On the same counts, the results for `Cc1ccc(S(=O)(=O)N2N=C(C(F)(F)F)CC2c2ccc3ccccc3c2)cc1` (stereo not given) are 10.7, > 500 µM, 1.01 µM, 0.85 µM and > 500 µM.
As to `O=S(=O)(c1ccccc1)N1N=C(C(F)(F)F)CC1c1ccc2c(c1)OCO2` (stereo not given), in experiment [1], the Ratio IC50 was found to be 2.5. In addition, the GI50 is 34.6 µM in experiment [2] and 1.63 µM in experiment [4]. Also, the IC50 in experiment [3] amounted to 2.41 µM; in experiment [5], 14.1 µM.
With `CS(=O)(=O)c1ccc(N2N=C(C(F)(F)F)CC2c2cccc3c2OCCO3)cc1` (stereo not given), the GI50 was found to be 26 µM in experiment [2] and 0.76 µM in experiment [4]. Moreover, the values for the IC50 in experiment [3] and in experiment [5] were 0.12 µM and 40.6 µM, respectively.
For the compound `O=S(=O)(c1ccccc1)N1N=C(C(F)(F)F)CC1c1cccc2c1OCO2` (stereo not given), in experiment [1], the Ratio IC50 was determined as 0.14. Moreover, the values for the GI50 in experiment [2] and in experiment [4] were > 500 µM and 13.6 µM, respectively. Moreover, the IC50 in experiment [3] was determined as 9.46 µM; in experiment [5] it was 8.75 µM.
For the compound `CCCS(=O)(=O)Nc1ccc(F)c(C(=O)c2c[nH]c3ncc(-c4ccc(Cl)cc4)cc23)c1F` [VEMURAFENIB], the IC50 in experiment [3] is 0.06 µM.
For the compound `CS(=O)(=O)c1ccc(N2N=C(C(F)(F)F)CC2c2ccc3c(c2)OCCO3)cc1` (stereo not given), the Ratio IC50 in experiment [1] was determined as 270. In addition, the GI50 in experiment [2] was found to be 23.5 µM; in experiment [4], 1.12 µM. The IC50 stood at 0.89 µM in experiment [3] and 64.9 µM in experiment [5].
On the same counts, the results for `NS(=O)(=O)c1ccc(N2N=C(C(F)(F)F)CC2c2ccc3ccccc3c2)cc1` (stereo not given) are 1.3, 49.8 µM, 1.09 µM, 1.15 µM and 19 µM.
The matching figures for `O=S(=O)(c1ccccc1)N1N=C(C(F)(F)F)CC1c1ccc2c(c1)OCCO2` (stereo not given): 54, 58.9 µM, > 500 µM, > 100 µM and 106 µM.
On the same counts, the results for `CS(=O)(=O)c1ccc(N2N=C(C(F)(F)F)CC2c2cccc3c2OCO3)cc1` (stereo not given) are 269, 38.6 µM, 16.8 µM, 9.86 µM and 10.8 µM.
As to `Cc1ccc(S(=O)(=O)N2N=C(C(F)(F)F)CC2c2cccc3c2OCO3)cc1` (stereo not given), the results for the GI50 in experiment [2] and in experiment [4] were > 500 µM and 1.08 µM, respectively. Also, the IC50 in experiment [3] was found to be 1.11 µM; in experiment [5], 10.4 µM.
Regarding `O=S(=O)(c1ccccc1)N1N=C(C(F)(F)F)CC1c1cccc2c1OCCO2` (stereo not given), the Ratio IC50 in experiment [1] was 3.7. The GI50 worked out at 127 µM in experiment [2] and 3.87 µM in experiment [4]. Besides, the results for the IC50 in experiment [3] and in experiment [5] were 5.24 µM and 100 µM, respectively.
For `NS(=O)(=O)c1ccc(N2N=C(C(F)(F)F)CC2c2ccc3c(c2)OCCO3)cc1` (stereo not given), the Ratio IC50 in experiment [1] was > 500. Moreover, the GI50 stood at 19.9 µM in experiment [2] and 132 µM in experiment [4]. For the same compound, the concentration for half-maximal inhibition (IC50) in experiment [3] came out at 17 µM; in experiment [5], 41.5 µM.
